Results from patent publication US20030162206A1, “Ceramide kinase and DNA encoding it” (SANKYO COMPANY, LIMITED, priority 2000, published 2003).

Key:
[1] = tested on: enzyme activity which HEK293 cell has endogenously; experiment: Phosphorylation activity of lysate of HEK293 cells transfected with only pCR3.1 vector (negative-reaction control); type: biochemical, human; settings: substance used as substrate; lysate of HEK293 cells expressing only pCR3.1 vector
Procedure: In order to examine whether the protein of the present invention has ceramide kinase activity, the human embryo kidney cell HEK293 (ATCC CRL-1573) was transfected with the expression vector pCR3.1-CERK1 obtained above. That is, after putting 6×10^5 HEK293 cells per well into a polylysine-coated 6-well plate for tissue culture (manufactured by Iwaki Glass) and incubating at 37° C. for 24 hours, they were transfected with one μg of pCR3.1-CERK 1 by using a transfection reagent (Lipofectamin plus, manufactured by Life technology) according to the directions attached thereto. After the operation for the transfection was finished, cells were cultured at 37° C. for one day and the conditioned medium was removed. Then, the cells were collected by using buffer solution A (10% glycerol, 1 mM dithiothreitol, 1 mM EDTA, 1 mM sodium vanadate, protease inhibitor (Complete™, manufactured by Boeheringer Mannheim), a 200 mM Hepes buffer solution, pH 7.0). By ultrasonication with a probe-type sonicater (Cell Disrupter 200, manufactured by Branson), the collected cells were broken into pieces, and the resulting cell lysate was diluted and then used for measurement of enzyme activity as shown in Example 3. […]
Specifically, 10 μl of 1 mM C6-ceramide prepared by using BSA solution (4 mg/ml) and 10 μl of a mixture of 100 mM magnesium chloride and 2 mM of radiolabeled [^32P]-gamma-ATP (manufactured by NEN) were added to 180 μl of buffer B [1 mM dithiothreitol, 1 mM EDTA, 1 mM sodium vanadate, protease inhibitor (Complete™, manufactured by Boeheringer Mannheim), 1 mM calcium chloride, a 200 mM HEPES buffer solution, pH 7.0] which further contains the protein of the present invention prepared in Example 2, and then incubated at 37° C. for 20 minutes to conduct the ceramide kinase reaction. […] The resulting extract was subjected to centrifugation at 2000×g, and the obtained lower layer (chloroform phase) was developed and analyzed on TLC. […]

[2] = target: T1, protein of the present invention having ceramide kinase activity (hCERK1) (Homo sapiens, UniProt Q8TCT0); experiment: Measurement of ceramide kinase activity, lysate of HEK293 cells transfected with pCR3.1-CERK1, [32P]-γ-ATP, TLC; type: biochemical; settings: for Phosphorylation by the protein of the present invention (in words): optimum assay conditions for ceramide kinase; for Ratio of activities (pCR3.1-CERK1/pCR3.1) / Phosphorylation activity, Transformed with pCR3.1-CERK 1: substance used as substrate; for Phosphorylation activity, Transformed with pCR3.1-CERK 1: HEK293 cell lysate, [32P]-γ-ATP, 37° C. 20 minutes, pH 7.0, natural ceramide micellized with octyl glucoside; for Effect on ceramide kinase activity (activated / inhibited): C6-ceramide as substrate, examination of optimum assay conditions
T1 construct: expressed in transfected cells; host or cells: HEK293 (ATCC CRL-1573), transient transfection with pCR3.1-CERK1; sonicated cell lysate
T1 sequence (Q8TCT0 1-537): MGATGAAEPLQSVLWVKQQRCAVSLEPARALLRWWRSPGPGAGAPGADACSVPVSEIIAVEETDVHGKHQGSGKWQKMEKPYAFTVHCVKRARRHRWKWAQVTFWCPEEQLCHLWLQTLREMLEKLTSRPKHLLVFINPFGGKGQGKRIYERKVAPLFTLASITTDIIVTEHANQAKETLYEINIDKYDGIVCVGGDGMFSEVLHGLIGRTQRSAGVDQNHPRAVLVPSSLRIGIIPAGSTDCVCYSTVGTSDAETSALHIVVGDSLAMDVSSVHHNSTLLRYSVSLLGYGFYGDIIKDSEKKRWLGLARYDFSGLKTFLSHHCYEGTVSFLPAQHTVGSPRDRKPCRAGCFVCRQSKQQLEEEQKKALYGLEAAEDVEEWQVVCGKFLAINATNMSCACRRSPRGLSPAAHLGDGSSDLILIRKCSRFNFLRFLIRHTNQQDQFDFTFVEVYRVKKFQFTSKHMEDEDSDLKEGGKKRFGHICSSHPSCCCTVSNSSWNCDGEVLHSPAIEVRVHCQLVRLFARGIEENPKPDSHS
Procedure: Specifically, the solution containing the protein, HEPES buffer solution (pH 7.0) containing magnesium chloride, EDTA, dithiothreitol, sodium vanadate, and protease inhibitor (for example, Complete (trademark), manufactured by Boehringer Manheim), C6 ceramide dissolved in a substrate (bovine serum albumin (hereinafter referred to as “BSA”)) solution having a concentration of 4 mg/ml or ceramide micellized by using octyl glucoside (a preparation purified from bovine fetal brain, manufactured by Sigma), and radio-labeled ^32P-ATP are mixed and incubated at 37° C. to perform a ceramide kinase reaction. Then, the reaction is stopped by adding 1N hydrochloric acid thereto and chloroform:methanol:concentrated hydrochloric acid (100:200: 1 v/v) is added thereto and extracted. The resultant lower layer (chloroform phase) is developed on thin layer chromatography (hereinafter referred to as “TLC”), and analyzed. The ceramide kinase activity can be determined by quantifying the spot in said TLC corresponded to ceramide-1-phosphate (hereinafter referred to as “Cer-1-P”) which is a product.
That is, after putting 6×10^5 HEK293 cells per well into a polylysine-coated 6-well plate for tissue culture (manufactured by Iwaki Glass) and incubating at 37° C. for 24 hours, they were transfected with one μg of pCR3.1-CERK 1 by using a transfection reagent (Lipofectamin plus, manufactured by Life technology) according to the directions attached thereto. After the operation for the transfection was finished, cells were cultured at 37° C. for one day and the conditioned medium was removed. Then, the cells were collected by using buffer solution A (10% glycerol, 1 mM dithiothreitol, 1 mM EDTA, 1 mM sodium vanadate, protease inhibitor (Complete™, manufactured by Boeheringer Mannheim), a 200 mM Hepes buffer solution, pH 7.0). By ultrasonication with a probe-type sonicater (Cell Disrupter 200, manufactured by Branson), the collected cells were broken into pieces, and the resulting cell lysate was diluted and then used for measurement of enzyme activity as shown in Example 3.
Specifically, 10 μl of 1 mM C6-ceramide prepared by using BSA solution (4 mg/ml) and 10 μl of a mixture of 100 mM magnesium chloride and 2 mM of radiolabeled [^32P]-gamma-ATP (manufactured by NEN) were added to 180 μl of buffer B [1 mM dithiothreitol, 1 mM EDTA, 1 mM sodium vanadate, protease inhibitor (Complete™, manufactured by Boeheringer Mannheim), 1 mM calcium chloride, a 200 mM HEPES buffer solution, pH 7.0] which further contains the protein of the present invention prepared in Example 2, and then incubated at 37° C. for 20 minutes to conduct the ceramide kinase reaction. Next, after stopping the reaction by adding 20 μl of 1 N hydrochloric acid, 800 μl (100:200:1, v/v) of chloroform:methanol:concentrated hydrochloric acid, 250 μl of 2.5 M potassium chloride, and 250 μl of chloroform were added thereto and extracted. The resulting extract was subjected to centrifugation at 2000×g, and the obtained lower layer (chloroform phase) was developed and analyzed on TLC.
That is, a necessary amount of ceramide dissolved in chloroform was dried to be solid under a nitrogen air current, and the buffer solution B which contains 0.2% of octyl glucoside was added thereto, and then subjected to ultrasonication, and finally 100 μM ceramide solution was provided. 90 μl of the mixture of buffer solution B containing the enzyme solution and 10 μl of the mixture consisting of 100 mM magnesium chloride and 2 mM radio-labeled [^32P]-γ-ATP were added to 100 μl of said substrate solution, and then incubated at 37° C. for 20 minutes to perform the ceramide kinase reaction. Extraction of Cer-1-P was conducted by a similar procedure to the above-mentioned.

Row | Phosphorylation by the protein of the present invention (in words) [2] | Ratio of activities (pCR3.1-CERK1/pCR3.1) [2] | Phosphorylation activity, Transformed with pCR3.1-CERK 1 [2] [pmol/min/mg] | Km ([2]; substrate C6-ceramide) [µM] | Effect on ceramide kinase activity (activated / inhibited) [2] | Compound | Phosphorylation activity, Transformed with pCR3.1 [1] [pmol/min/mg]
1 | high efficiency | 183 | 1280 | 7 |  | CCCCCCCCCCCCC/C=C/[C@@H](O)[C@H](CO)NC(=O)CCCCC [C6-ceramide, N-hexanoyl form of D-erythro-sphingosine] | 7
2 | hardly phosphorylated | 1 | 50 |  |  | CCCCCCCCCCCCC/C=C/[C@@H](O)[C@@H](N)CO [D-erythro-sphingosine] | 50
3 |  |  |  |  | inhibited | C[C@H](CCC(=O)O)[C@H]1CC[C@H]2[C@@H]3[C@H](O)C[C@@H]4C[C@H](O)CC[C@]4(C)[C@H]3C[C@H](O)[C@]12C [cholic acid] | 
4 |  |  |  |  | inhibited | Triton X-100 | 
5 | hardly phosphorylated | 1 | 150 |  |  | diacylglycerol [DG] | 130
6 |  |  |  |  | inhibited | phosphatidylserine | 

Row | Compound | Phosphorylation by the protein of the present invention (in words) [2] | Ratio of activities (pCR3.1-CERK1/pCR3.1) [2] | Phosphorylation activity, Transformed with pCR3.1-CERK 1 [2] [pmol/min/mg] | Km ([2]; substrate C6-ceramide) [µM] | Effect on ceramide kinase activity (activated / inhibited) [2] | Phosphorylation activity, Transformed with pCR3.1 [1] [pmol/min/mg]
7 | [Ca+2].[Cl-].[Cl-] [calcium chloride] |  |  |  |  | activated | 
8 | [Cl-].[Cl-].[Mg+2] [magnesium chloride] |  |  |  |  | activated | 
